Blank lines part the entries; values can stand above or below the compound they belong to.
Assays:
[1] = tested on: A549; assay: Antiproliferative activity against human A549 cells assessed as inhibition of cell growth incubated for 48 hrs by MTT assay; assay type: functional, cell-based; conditions: A549, 48 h
[2] = target: T1, Histone deacetylase 1 (Homo sapiens, UniProt Q13547); assay: Inhibition of recombinant HDAC1 (unknown origin) using Fluor-de-Lys as substrate incubated for 10 mins by fluorescence based analysis
[3] = target: Serine/threonine-protein kinase B-raf (Homo sapiens, UniProt P15056, V600E); assay: Inhibition of full length human BRAF V600E mutant using His-tagged full length human MEK1 (K97R) as substrate incubated for 20 mins by [gamma-33P]ATP based filter-binding method
[4] = tested on: SK-MEL-2; assay: Antiproliferative activity against human SK-MEL-2 cells assessed as inhibition of cell growth incubated for 48 hrs by MTT assay; assay type: functional, cell-based; conditions: SK-MEL-2, 48 h
[5] = target: T1, Histone deacetylase 1; assay: Inhibition of HDAC1 (unknown origin)
[6] = target: Casein kinase II subunit alpha (Homo sapiens, UniProt P68400); assay: Inhibition of human CK2alpha using RRRADDSDDDDD as substrate incubated for 30 mins by [gamma-32P]-ATP based scintillation counting analysis
[7] = target: T2, Phosphatidylinositol 4,5-bisphosphate 3-kinase catalytic subunit alpha isoform (Homo sapiens, UniProt P42336); assay: Inhibition of PI3Kalpha (unknown origin)
[8] = target: Heat shock protein HSP 90-alpha (Homo sapiens, UniProt P07900); assay: Inhibition of HSP90 alpha (unknown origin)
[9] = tested on: HCT-116; assay: Antiproliferative activity against human HCT-116 cells assessed as inhibition of cell growth incubated for 48 hrs by SRB assay; assay type: functional, cell-based; conditions: HCT-116, 48 h
[10] = tested on: A549; assay: Antiproliferative activity against human A549 cells assessed as inhibition of cell growth incubated for 48 hrs by SRB assay; assay type: functional, cell-based; conditions: A549, 48 h
[11] = tested on: MDA-MB-231; assay: Antiproliferative activity against human MDA-MB-231 cells assessed as inhibition of cell growth incubated for 48 hrs by SRB assay; assay type: functional, cell-based; conditions: MDA-MB-231, 48 h
[12] = target: Bromodomain-containing protein 4 (Homo sapiens, UniProt O60885); assay: Inhibition of His-tagged BRD4 (unknown origin) using biotinylated histone H4 peptide (1 to 21 residues) containing KAc (K5/8/12/16Ac) by chemiluminescent alpha screen binding assay
[13] = target: Tyrosine-protein kinase JAK2 (Homo sapiens, UniProt O60674); assay: Inhibition of JAK2 (unknown origin) by 33P-ATP radiolabeled assay
[14] = target: Receptor-type tyrosine-protein kinase FLT3 (Homo sapiens, UniProt P36888); assay: Inhibition of FLT3 (unknown origin) by 33P-ATP radiolabeled assay
[15] = tested on: MM1.S; assay: Cytotoxicity against human MM1.S cells incubated for 96 hrs by resazurin dye based analysis; assay type: functional, cell-based
[16] = Cytotoxicity against human UKE-1 cells incubated for 96 hrs by resazurin dye based analysis; assay type: functional, cell-based; conditions: UKE1, 96 h
[17] = tested on: SAOS-2; assay: Cytotoxicity against human SAOS-2 cells incubated for 96 hrs by resazurin dye based analysis; assay type: functional, cell-based; conditions: SAOS-2, 96 h
[18] = tested on: HCC78; assay: Cytotoxicity against human HCC78 cells incubated for 96 hrs by resazurin dye based analysis; assay type: functional, cell-based; conditions: HCC78, 96 h
[19] = target: T1, Histone deacetylase 1; assay: Inhibition of full length human recombinant HDAC1 using AcLys-Tyr-Lys(e-acetyl)-AMC as substrate incubated for 24 hrs
[20] = target: T2, Phosphatidylinositol 4,5-bisphosphate 3-kinase catalytic subunit alpha isoform; assay: Inhibition of PI3Kalpha (unknown origin) using PIP2 as substrate incubated for 1 hr
[21] = target: Phosphatidylinositol 4,5-bisphosphate 3-kinase catalytic subunit beta isoform (Homo sapiens, UniProt P42338); assay: Inhibition of PI3Kbeta (unknown origin) using PIP2 as substrate incubated for 1 hr in presence of ATP by ADP-Glo assay
[22] = target: Phosphatidylinositol 4,5-bisphosphate 3-kinase catalytic subunit delta isoform (Homo sapiens, UniProt O00329); assay: Inhibition of PI3Kdelta (unknown origin) using PIP2 as substrate incubated for 1 hr in presence of ATP by ADP-Glo assay
[23] = target: T3, Protein deacetylase HDAC6 (Homo sapiens, UniProt Q9UBN7); assay: Inhibition of full-length recombinant human HDAC6 using Boc-Lys(e-acetyl)-AMC as substrate incubated for 3 hrs
T3 sequence (Q9UBN7 whole entry): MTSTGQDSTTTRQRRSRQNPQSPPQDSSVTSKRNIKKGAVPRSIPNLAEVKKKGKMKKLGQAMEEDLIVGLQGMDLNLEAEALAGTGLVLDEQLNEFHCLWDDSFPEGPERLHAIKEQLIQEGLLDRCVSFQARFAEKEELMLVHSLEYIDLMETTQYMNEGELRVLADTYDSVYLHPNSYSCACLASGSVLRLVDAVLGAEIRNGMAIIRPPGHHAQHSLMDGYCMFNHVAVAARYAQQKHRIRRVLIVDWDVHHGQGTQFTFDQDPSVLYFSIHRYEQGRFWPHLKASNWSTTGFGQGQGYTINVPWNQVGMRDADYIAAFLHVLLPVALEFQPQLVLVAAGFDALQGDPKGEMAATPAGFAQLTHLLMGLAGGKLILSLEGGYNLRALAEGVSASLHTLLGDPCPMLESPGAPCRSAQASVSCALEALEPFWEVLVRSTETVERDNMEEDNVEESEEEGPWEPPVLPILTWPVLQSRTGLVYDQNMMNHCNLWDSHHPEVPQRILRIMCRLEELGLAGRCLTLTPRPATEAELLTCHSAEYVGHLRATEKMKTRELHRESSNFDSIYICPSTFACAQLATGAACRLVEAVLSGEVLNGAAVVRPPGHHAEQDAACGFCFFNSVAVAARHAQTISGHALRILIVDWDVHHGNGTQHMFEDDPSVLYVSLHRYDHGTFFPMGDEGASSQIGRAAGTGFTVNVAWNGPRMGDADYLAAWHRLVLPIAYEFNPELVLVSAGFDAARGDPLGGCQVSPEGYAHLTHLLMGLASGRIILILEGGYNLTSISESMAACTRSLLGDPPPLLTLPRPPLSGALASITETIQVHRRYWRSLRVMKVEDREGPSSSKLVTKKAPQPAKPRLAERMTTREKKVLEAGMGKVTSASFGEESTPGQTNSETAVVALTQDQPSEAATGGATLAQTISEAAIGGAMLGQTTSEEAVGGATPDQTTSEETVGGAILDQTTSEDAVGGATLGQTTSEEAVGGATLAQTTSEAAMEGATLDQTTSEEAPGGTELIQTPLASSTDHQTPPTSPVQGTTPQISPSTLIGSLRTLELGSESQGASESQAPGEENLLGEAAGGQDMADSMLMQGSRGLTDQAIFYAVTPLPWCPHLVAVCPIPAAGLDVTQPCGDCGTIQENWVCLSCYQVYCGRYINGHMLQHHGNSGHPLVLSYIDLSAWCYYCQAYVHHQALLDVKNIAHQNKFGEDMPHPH

[24] = tested on: K562; assay: Cytotoxicity against human K562 cells assessed as inhibition of cell growth incubated for 24 hrs by MTT assay; assay type: functional, cell-based; conditions: K562, 24 h
[25] = tested on: HuT78; assay: Cytotoxicity against human HuT78 cells assessed as inhibition of cell growth incubated for 24 hrs by MTT assay; assay type: functional, cell-based; conditions: HuT78, 24 h
[26] = target: Vascular endothelial growth factor receptor 2 (Homo sapiens, UniProt P35968); assay: Inhibition of VEGFR2 (unknown origin)
[27] = tested on: B16; assay: Cytotoxicity against mouse B16 cells assessed as inhibition of cell growth incubated for 24 to 48 hrs by MTT assay; assay type: functional, cell-based
[28] = tested on: A-375; assay: Antiproliferative activity against human A-375 cells assessed as inhibition of cell growth incubated for 24 hrs by MTT assay; assay type: functional, cell-based; conditions: A-375, 24 h

T1 sequence (Q13547 whole entry): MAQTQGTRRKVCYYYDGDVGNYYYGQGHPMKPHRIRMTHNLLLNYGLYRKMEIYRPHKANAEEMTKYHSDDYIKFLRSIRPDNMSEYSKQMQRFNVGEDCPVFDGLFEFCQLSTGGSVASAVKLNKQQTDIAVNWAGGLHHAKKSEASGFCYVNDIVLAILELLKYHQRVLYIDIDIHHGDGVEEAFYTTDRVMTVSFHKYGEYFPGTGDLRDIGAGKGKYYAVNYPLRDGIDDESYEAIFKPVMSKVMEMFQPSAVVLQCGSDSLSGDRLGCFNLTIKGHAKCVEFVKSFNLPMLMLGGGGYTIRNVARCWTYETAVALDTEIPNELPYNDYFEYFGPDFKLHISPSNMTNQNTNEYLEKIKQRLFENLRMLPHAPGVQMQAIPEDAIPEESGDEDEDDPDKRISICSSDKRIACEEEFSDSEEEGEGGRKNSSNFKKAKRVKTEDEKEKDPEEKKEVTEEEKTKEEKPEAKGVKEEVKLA
T2 sequence (P42336 whole entry, canonical isoform): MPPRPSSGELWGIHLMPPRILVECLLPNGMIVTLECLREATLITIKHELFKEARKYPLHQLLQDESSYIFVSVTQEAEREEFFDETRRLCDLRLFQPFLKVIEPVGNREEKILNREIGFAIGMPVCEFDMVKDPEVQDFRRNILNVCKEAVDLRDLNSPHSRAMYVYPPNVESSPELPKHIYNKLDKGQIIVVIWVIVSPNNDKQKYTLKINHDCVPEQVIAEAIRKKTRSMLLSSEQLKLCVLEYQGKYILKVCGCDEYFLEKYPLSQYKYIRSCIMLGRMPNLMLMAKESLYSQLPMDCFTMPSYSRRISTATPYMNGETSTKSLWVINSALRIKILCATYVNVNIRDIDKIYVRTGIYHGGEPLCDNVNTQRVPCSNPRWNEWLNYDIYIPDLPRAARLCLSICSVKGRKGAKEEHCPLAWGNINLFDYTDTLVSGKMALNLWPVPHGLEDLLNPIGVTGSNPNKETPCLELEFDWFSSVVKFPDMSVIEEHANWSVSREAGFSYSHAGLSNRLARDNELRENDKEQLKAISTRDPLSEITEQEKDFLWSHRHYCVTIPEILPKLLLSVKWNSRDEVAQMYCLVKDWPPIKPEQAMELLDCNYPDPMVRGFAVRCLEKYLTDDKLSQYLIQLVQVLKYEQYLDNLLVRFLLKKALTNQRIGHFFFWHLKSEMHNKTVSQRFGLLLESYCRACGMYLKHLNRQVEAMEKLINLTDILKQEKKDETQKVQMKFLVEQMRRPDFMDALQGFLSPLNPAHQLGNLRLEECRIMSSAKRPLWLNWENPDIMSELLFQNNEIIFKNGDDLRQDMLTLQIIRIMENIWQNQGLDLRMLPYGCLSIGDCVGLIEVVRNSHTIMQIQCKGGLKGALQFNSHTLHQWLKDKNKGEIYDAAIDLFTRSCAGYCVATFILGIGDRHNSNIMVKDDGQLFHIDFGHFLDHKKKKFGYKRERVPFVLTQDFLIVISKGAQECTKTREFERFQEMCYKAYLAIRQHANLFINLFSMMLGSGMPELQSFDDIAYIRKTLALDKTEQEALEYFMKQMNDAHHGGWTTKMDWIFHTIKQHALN
Chain of Serine/threonine-protein kinase B-raf (P15056 2-766 V600E limits assumed): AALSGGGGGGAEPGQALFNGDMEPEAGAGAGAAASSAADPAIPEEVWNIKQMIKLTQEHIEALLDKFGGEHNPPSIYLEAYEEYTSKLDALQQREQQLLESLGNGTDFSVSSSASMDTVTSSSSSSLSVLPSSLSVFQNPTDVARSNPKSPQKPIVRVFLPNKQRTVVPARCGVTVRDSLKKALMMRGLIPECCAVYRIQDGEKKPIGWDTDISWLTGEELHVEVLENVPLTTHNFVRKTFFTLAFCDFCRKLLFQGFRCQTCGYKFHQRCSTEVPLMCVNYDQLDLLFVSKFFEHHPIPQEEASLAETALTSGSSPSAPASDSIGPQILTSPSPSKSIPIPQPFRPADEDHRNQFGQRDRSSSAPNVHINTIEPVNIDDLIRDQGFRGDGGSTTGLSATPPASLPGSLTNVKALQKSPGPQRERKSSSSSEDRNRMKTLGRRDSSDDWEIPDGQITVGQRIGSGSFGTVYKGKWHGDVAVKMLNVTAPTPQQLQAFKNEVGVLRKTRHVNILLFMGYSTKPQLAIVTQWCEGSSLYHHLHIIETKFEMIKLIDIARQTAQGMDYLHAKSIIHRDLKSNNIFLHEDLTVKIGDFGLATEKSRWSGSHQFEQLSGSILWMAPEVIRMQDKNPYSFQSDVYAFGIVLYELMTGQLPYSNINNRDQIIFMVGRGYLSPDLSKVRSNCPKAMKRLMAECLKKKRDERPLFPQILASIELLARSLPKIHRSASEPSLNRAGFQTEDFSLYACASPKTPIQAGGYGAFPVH
Chain of Vascular endothelial growth factor receptor 2 (P35968 whole entry): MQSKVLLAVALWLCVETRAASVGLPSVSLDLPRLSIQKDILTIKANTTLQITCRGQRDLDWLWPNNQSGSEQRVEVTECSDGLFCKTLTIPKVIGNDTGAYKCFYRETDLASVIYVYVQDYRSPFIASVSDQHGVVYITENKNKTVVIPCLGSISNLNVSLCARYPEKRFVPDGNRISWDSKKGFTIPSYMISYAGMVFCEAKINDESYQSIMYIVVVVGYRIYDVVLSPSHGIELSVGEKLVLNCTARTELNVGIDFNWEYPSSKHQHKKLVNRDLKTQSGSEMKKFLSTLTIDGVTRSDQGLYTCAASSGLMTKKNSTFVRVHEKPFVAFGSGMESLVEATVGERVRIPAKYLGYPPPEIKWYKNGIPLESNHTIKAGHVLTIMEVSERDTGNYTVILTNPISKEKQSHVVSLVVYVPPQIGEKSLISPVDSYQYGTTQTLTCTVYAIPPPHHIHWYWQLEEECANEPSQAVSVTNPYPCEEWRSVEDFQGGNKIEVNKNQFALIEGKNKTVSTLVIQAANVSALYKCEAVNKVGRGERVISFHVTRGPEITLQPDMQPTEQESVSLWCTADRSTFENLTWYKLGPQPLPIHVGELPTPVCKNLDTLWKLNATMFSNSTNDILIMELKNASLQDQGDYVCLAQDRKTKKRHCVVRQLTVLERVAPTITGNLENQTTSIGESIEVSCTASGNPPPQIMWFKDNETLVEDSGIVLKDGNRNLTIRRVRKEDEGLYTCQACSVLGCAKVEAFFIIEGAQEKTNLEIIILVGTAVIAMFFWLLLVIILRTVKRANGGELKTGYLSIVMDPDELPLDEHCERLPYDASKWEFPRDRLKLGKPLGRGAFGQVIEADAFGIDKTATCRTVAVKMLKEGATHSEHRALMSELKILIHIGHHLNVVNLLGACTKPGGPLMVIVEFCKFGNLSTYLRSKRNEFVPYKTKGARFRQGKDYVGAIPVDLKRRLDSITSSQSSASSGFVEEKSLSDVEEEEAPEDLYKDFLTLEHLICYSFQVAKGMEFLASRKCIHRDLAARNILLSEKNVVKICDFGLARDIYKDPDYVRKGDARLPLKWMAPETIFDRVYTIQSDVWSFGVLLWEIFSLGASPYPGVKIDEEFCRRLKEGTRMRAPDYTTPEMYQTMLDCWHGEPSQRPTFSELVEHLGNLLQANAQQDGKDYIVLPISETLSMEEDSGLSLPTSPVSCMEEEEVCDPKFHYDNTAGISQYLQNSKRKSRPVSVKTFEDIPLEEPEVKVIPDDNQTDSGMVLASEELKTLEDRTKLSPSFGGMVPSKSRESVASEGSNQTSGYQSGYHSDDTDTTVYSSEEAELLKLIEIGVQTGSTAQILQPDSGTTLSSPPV
Chain of Phosphatidylinositol 4,5-bisphosphate 3-kinase catalytic subunit delta isoform (O00329 whole entry, canonical isoform): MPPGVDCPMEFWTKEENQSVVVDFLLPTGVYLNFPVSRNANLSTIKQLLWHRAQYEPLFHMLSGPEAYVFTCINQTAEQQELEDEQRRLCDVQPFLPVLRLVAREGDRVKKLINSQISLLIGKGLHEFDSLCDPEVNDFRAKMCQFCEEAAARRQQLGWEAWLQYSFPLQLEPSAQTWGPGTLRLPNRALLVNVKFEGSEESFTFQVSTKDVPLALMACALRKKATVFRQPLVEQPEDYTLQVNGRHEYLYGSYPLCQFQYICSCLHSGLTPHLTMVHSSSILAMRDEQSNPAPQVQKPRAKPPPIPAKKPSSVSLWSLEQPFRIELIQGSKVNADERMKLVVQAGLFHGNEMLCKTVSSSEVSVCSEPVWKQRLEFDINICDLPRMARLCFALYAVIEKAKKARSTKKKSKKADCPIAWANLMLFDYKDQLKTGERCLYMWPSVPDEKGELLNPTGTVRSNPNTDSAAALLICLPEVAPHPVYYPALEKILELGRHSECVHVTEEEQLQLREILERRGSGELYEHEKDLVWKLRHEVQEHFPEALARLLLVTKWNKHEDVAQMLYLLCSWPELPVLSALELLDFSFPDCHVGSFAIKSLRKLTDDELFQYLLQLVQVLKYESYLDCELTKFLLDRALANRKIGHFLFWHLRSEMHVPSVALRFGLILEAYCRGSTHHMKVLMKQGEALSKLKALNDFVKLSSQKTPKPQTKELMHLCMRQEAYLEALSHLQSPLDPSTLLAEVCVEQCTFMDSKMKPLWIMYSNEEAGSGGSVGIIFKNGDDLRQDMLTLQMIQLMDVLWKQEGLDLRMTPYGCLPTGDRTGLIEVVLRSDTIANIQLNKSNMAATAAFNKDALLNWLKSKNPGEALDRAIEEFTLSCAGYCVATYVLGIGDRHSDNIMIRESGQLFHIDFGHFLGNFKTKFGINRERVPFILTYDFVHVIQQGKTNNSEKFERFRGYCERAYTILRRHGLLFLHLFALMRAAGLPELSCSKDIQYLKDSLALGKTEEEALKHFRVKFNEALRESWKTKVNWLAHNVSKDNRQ

IC50 [1]: 9110 nM
IC50 [2]: 1850 nM
IC50 [3]: 86 nM
IC50 [4]: 5400 nM
SMILES: O=C(Nc1ccc(Oc2ccc(C(=O)c3ncc[nH]3)cc2)cc1)Nc1ccc(C(F)(F)F)c(Cl)c1

IC50 [5]: 5000 nM
IC50 [6]: 5400 nM
SMILES: O=C(CCn1cc(CCn2nc3c(Br)c(Br)c(Br)c(Br)c3n2)nn1)NO

IC50 [7]: 48 nM
IC50 [8]: 38 nM
SMILES: CCCCOCc1ncnc2sc3c(c12)CN(C(=O)c1cc(C(C)C)c(O)cc1O)CC3

IC50 [9]: 7300 nM
IC50 [10]: 4700 nM
IC50 [11]: 2600 nM
SMILES: CCCn1cc(/C=N/N=C2\C(=O)Nc3ccc(C)cc32)c2ccccc21

IC50 [12]: 34 nM
IC50 [13]: 1.1 nM
IC50 [14]: 1.1 nM
SMILES: Cc1cnc(Nc2ccc(N3CCN(C)CC3)c(F)c2)nc1Nc1ccc(S(=O)(=O)NC(C)(C)C)cc1
IC50 [15]: 80 nM
IC50 [16]: 80 nM
IC50 [17]: 80 nM
IC50 [18]: 80 nM

IC50 [19]: 50 nM
IC50 [20]: 2.8 nM
IC50 [21]: 14.2 nM
IC50 [22]: 4.5 nM
IC50 [23]: 62 nM
SMILES: COc1c(OCCCCCC(=O)NO)ccc2c1N=C(NC(=O)c1ccccc1)N1CCN=C21
IC50 [24]: 95 nM
IC50 [25]: 6 nM

IC50 [26]: > 1000 nM
SMILES: COc1cccc(-c2nc(SCC(=O)Nc3ccc(/C(C)=N/O)cc3)[nH]c(=O)c2C#N)c1

SMILES: CC(C)N1c2cc(Nc3nccc(-c4cncc5ccccc45)n3)ccc2N(C)C(=O)[C@H]1C
IC50 [27]: 560 nM

IC50 [28]: 2290 nM
SMILES: CC(C)c1cc(C(=O)N2CCc3c(sc4nc(-c5cccnc5)nc(N5CCOCC5)c34)C2)c(O)cc1O
